Here are results for eleven compounds from publication PMC11052913, “Determination of Regorafenib monohydrate (colorectal anticancer drug) solubility in supercritical CO2: Experimental and thermodynamic modeling” (Heliyon, 2024).

Counter-ions that a name gives are not always drawn. Like-named read-outs stand apart in the source and are kept apart here. Marks after values point to notes of the source that are not given here.

The conditions of data set [1]: cited from earlier work.
Data set [2] is described as follows: Total, vaporization and solvation enthalpies of the REG-ScCO2 system estimated from Chrastil, Kumar-Johnston and Bartle et al. model constants. It counts as physicochemical. The text has this: In Fig. 3, the self-consistency test of experimental REG solubility data employed the models Chrastil, Kumar-Johnston, Bartle et al., and Mendez-Teja. […] In other words, wherein all data points at different isotherms falls onto a single straight line, indicating the self-consistency test for the solubility of REG in ScCO2 at different temperatures.
Analogous techniques were applied for Galantamine, Clonazepam, Lansoprazole, and Esomeprazole. Finally, the total (ΔHtot-=-41.16 kJ/mol), vaporization (ΔHvap-=-60.04 kJ/mol), and solvation (ΔHsol-=-18.88 kJ/mol) enthalpies for the REG-ScCO2 binary system were estimated as part of this work. More detail of enthalpies of the REG can be seen in Table 4.

Data set [3] in a line: Solubility of REG in supercritical CO2, static isobaric-isothermal method with UV-Vis quantification. It is filed as physicochemical. The protocol:
The solubility of REG in ScCO2 was measured using a pilot-scale apparatus, as depicted in Fig. 1. […] An F-1 CO2 cylinder, an F-2 needle valve, an F-3 molecular sieve filter, an F-4 refrigeration unit, an F-5 high-pressure pump, an F-6 air compressor, an F-7 oven, an F-8 magnetic stirrer, an F-9 high-pressure equilibrium cell, an F-10 3-position valve, and an F-16 back-pressure valve were all part of the apparatus.
In each experimental trial, a consistent amount of 1 g of the REG drug was administered into the immobile cell, which was subsequently positioned inside a thermal chamber. The aforementioned measure was enacted with the purpose of ensuring that the temperature remains within a narrow range of ±0.1 K from the designated experimental point. At both cell ends, stainless-steel sintered filters were added to limit undissolved REG. After that, high-pressure CO2 was poured into the cell and allowed to sit for 70 min in order to obtain saturation. Based on earlier studies, we know that 60 min is sufficient to achieve balance. The isobaric-isothermal category includes this kind of measurement. Throughout the experiment, the target temperatures and pressure levels were kept within ±0.1 K and ±0.1 MPa, respectively, for every data point. Following the triplicate execution of the experiments, the average solubility values were computed.
After reaching equilibrium, we used a 2-position 6-way port valve to collect 600 μL of saturated ScCO2 samples. The materials were thereafter transferred into a vial that was pre-filled with dimethyl sulfoxide (DMSO). The flow rate was managed by means of a micrometer valve. Each experiment was finished with the flow line being purified with 1 mL of DMSO after 5 mL of the solution had been collected. Using a UNICO-4802 UV–Vis spectrophotometer set to a peak wavelength (λmax) of 275 nm, we examined the absorbance of REG in DMSO for solubility assessment. The solubility of REG in ScCO2 was determined according to a given equation. The amount of REG dissolved in ScCO2, denoted as (y2), was measured in terms of mole fraction. […] The quantification of the dissolved substance was accomplished through the measurement of UV absorbance. The calculation of the moles of REG (nREG) and CO2 (n1) in the loop was performed as follows:(1) nREG=CREG(g/L).VREG(L)/MREG(g/mol) (2) n1=V1(L).ρ1(g/L)/M1(g/mol)
The concentration of REG (g/L) in the collection vial is denoted as CREG. The sampling loop and the collection vial are represented by V1 (L) and VREG (L), respectively. The symbols M1 and MREG represent the molar masses of carbon dioxide (CO2) and a substance denoted as REG, respectively. The method out-lined in references was employed to determine the equilibrium mole fraction of REG, denoted as y2, in supercritical CO2 under varying temperatures and pressures.(3) y2=nREG/n1+nREG
The following equation was applied to determine the solubility of REG, S (in g/L), in the supercritical CO2(4) S=CREG(g/L).VREG(L)/V1(L)
Eq. (4) can be reformulated as below:(5) S=ρMREG/M1y2/(1−y2) In fact, Eq. (5) is another form of Eq. (4).

Details of data set [4]: method as in PMID 28214672, doi:10.1016/j.jddst.2019.101462. The note with it: pH 6.5 and 22–23 °C; cited from earlier work.

On to `CC(=O)N(c1ccccc1)c1ccc(C)cc1` [4-Methyl-N-phenylacetanilide], for which the “Mole fraction solubility in ScCO2” value in data set [1] (N 21, T 308-328 K, P 12.16-22.5 MPa, ref [2] of supplement) is listed as 38.4-480.2 (×10^6) mole fraction.

As to `Cc1ccc(C(=O)O)cc1` [4-Methylbenzoic acid], in data set [1] (N 18, T 313-333 K, P 11-24.6 MPa, ref [3] of supplement), the “Mole fraction solubility in ScCO2” value is 43-702 (×10^6) mole fraction.

For `CS(=O)(=O)OCCCCOS(C)(=O)=O` [Busulfan], the “Mole fraction solubility in ScCO2” value in data set [1] (N 32, T 308-328 K, P 12-40 MPa, ref [5] of supplement) is 32.7-865 (×10^6) mole fraction.

As for `O=C(O)c1ccccc1Nc1cccc(Cl)c1Cl` [Clofenamic acid], the “Mole fraction solubility in ScCO2” value in data set [1] (N 24, T 313-333 K, P 12-36 MPa, ref [9] of supplement) was 1.54-35.44 (×10^6) mole fraction.

`CC(C)(Oc1ccc(Cl)cc1)C(=O)O` [Clofibric acid]: in data set [1] (N 21, T 308-328 K, P 10.01-22.02 MPa, clofibric acid, ref [7] of supplement), the “Mole fraction solubility in ScCO2” value was 32.1-856 (×10^6) mole fraction.

Regarding `O=C1CN=C(c2ccccc2Cl)c2cc([N+](=O)[O-])ccc2N1` [Clonazepam], the “Mole fraction solubility in ScCO2” value in data set [1] (N 28, T 308-338 K, P 12-30 MPa, ref [1] of supplement) is 3.9-72.6 (×10^6) mole fraction.

On to `Cc1nc(Nc2ncc(C(=O)Nc3c(C)cccc3Cl)s2)cc(N2CCN(CCO)CC2)n1` [Dasatinib monohydrate], for which the “Mole fraction solubility in ScCO2” value in data set [1] (N 24, T 328-338 K, P 12-27 MPa, ref [11] of supplement) is 0.45 - 9.08 (×10^6) mole fraction.

In the case of `Cc1ccc(C)c(OCCCC(C)(C)C(=O)O)c1` [Gemfibrozil], in data set [1] (N 21, T 308-328 K, P 10.01-22.02 MPa, gemfibrozil, ref [7] of supplement), the “Mole fraction solubility in ScCO2” value is reported as 29.4-4190 (×10^6) mole fraction.

Turning to `Nc1nnc(-c2cccc(Cl)c2Cl)c(N)n1` [Lamotrigine], the “Mole fraction solubility in ScCO2” value in data set [1] (N 36, T 318-338 K, P 12.16-35.46 MPa, ref [8] of supplement) is on record as 0.3-5.9 (×10^6) mole fraction.

Take `COc1cc2nc(N3CCN(C(=O)c4ccco4)CC3)nc(N)c2cc1OC` [Prazosin Hydrochloride]: the “Mole fraction solubility in ScCO2” value in data set [1] (N 24, T 328-338 K, P 12-27 MPa, ref [12] of supplement) is reported as 1.5-72 (×10^6) mole fraction.

Regarding `CNC(=O)c1cc(Oc2ccc(NC(=O)Nc3ccc(Cl)c(C(F)(F)F)c3)c(F)c2)ccn1` [Regorafenib monohydrate, 4-(4-(3-(4-chloro-3-(trifluoromethyl)phenyl)ureido)-3-fluorophenoxy)-N-methylpicolinamide], in data set [2] (based on Bartle et al. model), the “vaporization enthalpy ΔHvap” value was 60.04 kJ/mol. Besides, the ΔHtot in data set [2] (based on Kumar-Johnston model) was 41.14 kJ/mol; in data set [2] (based on the Chrastil model) it was 41.17 kJ/mol. The S (equilibrium solubility) in ScCO2 in data set [3] (308 K, 120 bar, CO2 density 769 kg/m^3) stood at 0.0106 g/L; in data set [3] (308 K, 150 bar, CO2 density 817 kg/m^3) it was 0.0155 g/L; in data set [3] (308 K, 180 bar, CO2 density 849 kg/m^3), 0.018 g/L; in data set [3] (308 K, 210 bar, CO2 density 875 kg/m^3) it was 0.0226 g/L; in data set [3] (308 K, 240 bar, CO2 density 896 kg/m^3), 0.0292 g/L; in data set [3] (308 K, 270 bar, CO2 density 914 kg/m^3), 0.0315 g/L. In addition, the S (equilibrium solubility) in ScCO2 amounted to 0.0072 g/L in data set [3] (318 K, 120 bar, CO2 density 661 kg/m^3); 0.0098 g/L in data set [3] (318 K, 150 bar, CO2 density 744 kg/m^3); 0.0124 g/L in data set [3] (318 K, 180 bar, CO2 density 791 kg/m^3); 0.0287 g/L in data set [3] (318 K, 210 bar, CO2 density 824 kg/m^3); 0.0319 g/L in data set [3] (318 K, 240 bar, CO2 density 851 kg/m^3); 0.0372 g/L in data set [3] (318 K, 270 bar, CO2 density 872 kg/m^3). The S (equilibrium solubility) in ScCO2 stood at 0.0036 g/L in data set [3] (328 K, 120 bar, CO2 density 509 kg/m^3); 0.007 g/L in data set [3] (328 K, 150 bar, CO2 density 656 kg/m^3); 0.01 g/L in data set [3] (328 K, 180 bar, CO2 density 725 kg/m^3); 0.0331 g/L in data set [3] (328 K, 210 bar, CO2 density 769 kg/m^3); 0.0371 g/L in data set [3] (328 K, 240 bar, CO2 density 802 kg/m^3); 0.0392 g/L in data set [3] (328 K, 270 bar, CO2 density 829 kg/m^3). Besides, the S (equilibrium solubility) in ScCO2 in data set [3] (338 K, 120 bar, CO2 density 388 kg/m^3) was determined as 0.0013 g/L; in data set [3] (338 K, 150 bar, CO2 density 557 kg/m^3) it was 0.0037 g/L; in data set [3] (338 K, 180 bar, CO2 density 652 kg/m^3), 0.0072 g/L; in data set [3] (338 K, 210 bar, CO2 density 710 kg/m^3), 0.0346 g/L; in data set [3] (338 K, 240 bar, CO2 density 751 kg/m^3), 0.041 g/L; in data set [3] (338 K, 270 bar, CO2 density 783 kg/m^3), 0.0553 g/L. Further, the “crossover pressure of the solubility isotherms in ScCO2” value in data set [3] (isotherms 308–338 K) is 18–21 MPa. The “maximum equilibrium mole fraction in ScCO2” value in data set [3] (over 308–338 K and 120–270 bar, maximum at 338 K and 27 MPa, listed as REG) is 6.44×10^−6 mole fraction. Also, the “minimum equilibrium mole fraction in ScCO2” value in data set [3] (over 308–338 K and 120–270 bar, minimum at 338 K, listed as REG) is 3.06×10^−7 mole fraction. The solubility in water in data set [4] is 0.12 µg/mL.
